The supplement of paper PMC6045584
± gives the standard deviation of the averaged measurements.

Tests used:
[1] = compound: CS(=O)(=O)CCNCc1ccc(-c2ccc3ncnc(Nc4ccc(OCc5cccc(F)c5)c(Cl)c4)c3c2)o1 [LAPATINIB]; assay: surviving fraction relative to DMSO-only wells; higher = less growth inhibition; conditions: exposure time: 5 days
Procedure, shortened: (§1)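 Tumour cell lines in log phase were plated in 384-well plates at 250–500 cells per well, then, after 24 hours, exposed continuously for five days to inhibitors at 0.5, 1, 5, 10, 50, 100, 500 and 1000 nM. Viability came from CellTiter-Glo luminescence, and surviving fraction is that signal normalised to the median of DMSO-only wells. Plates were read after 10 minutes at room temperature, and each line, screened three times, was kept only when replicate Pearson r was >0.7 and median Z' was >0.3.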

[2] = compound: Nc1ncn([C@H]2C[C@H](O)[C@@H](CO)O2)c(=O)n1 [DECITABINE]; assay: as above; conditions: exposure time: 5 days
Procedure, shortened: as §1

Test System | surviving fraction ([1]; 0.5 nM) | surviving fraction ([1]; 1 nM) | surviving fraction ([1]; 5 nM) | surviving fraction ([1]; 10 nM) | surviving fraction ([1]; 50 nM) | surviving fraction ([1]; 100 nM) | surviving fraction ([1]; 500 nM) | surviving fraction ([1]; 1000 nM) | surviving fraction ([2]; 0.5 nM) | surviving fraction ([2]; 1 nM) | surviving fraction ([2]; 5 nM) | surviving fraction ([2]; 10 nM) | surviving fraction ([2]; 50 nM) | surviving fraction ([2]; 100 nM) | surviving fraction ([2]; 500 nM) | surviving fraction ([2]; 1000 nM)
22RV1 PROSTATE | 1.01 ± 0.05 | 1.1 ± 0.096 | 0.954 ± 0.076 | 1.01 ± 0.1 | 1.04 ± 0.034 | 1.07 ± 0.085 | 1.08 ± 0.12 | 1.11 ± 0.059 | 1.01 ± 0.024 | 0.935 ± 0.23 | 0.964 ± 0.19 | 0.897 ± 0.19 | 0.881 ± 0.27 | 0.801 ± 0.16 | 0.614 ± 0.17 | 0.509 ± 0.15
93VU HEADNECK | 1.04 ± 0.13 | 1.09 ± 0.11 | 1.07 ± 0.018 | 1.12 ± 0.069 | 0.806 ± 0.021 | 0.827 ± 0.045 | 0.493 ± 0.039 | 0.438 ± 0.041 | 1.12 ± 0.086 | 1.09 ± 0.1 | 1.14 ± 0.12 | 1 ± 0.015 | 0.931 ± 0.035 | 0.933 ± 0.017 | 0.747 ± 0.03 | 0.657 ± 0.007
143B BONE | 0.986 ± 0.065 | 1.07 ± 0.057 | 0.931 ± 0.14 | 0.967 ± 0.11 | 1.01 ± 0.013 | 1.08 ± 0.11 | 1.02 ± 0.016 | 1.01 ± 0.021 | 1.09 ± 0.088 | 1.08 ± 0.09 | 1.09 ± 0.067 | 1.1 ± 0.069 | 1.13 ± 0.11 | 1.11 ± 0.076 | 0.992 ± 0.11 | 0.956 ± 0.031
A549 LUNG | 1.038 ± 0.0095 | 1.14 ± 0.044 | 1.06 ± 0.02 | 1.07 ± 0.016 | 1.02 ± 0.043 | 1.06 ± 0.05 | 1 ± 0.041 | 1.02 ± 0.036 | 1.05 ± 0.027 | 1.031 ± 0.0066 | 1.03 ± 0.017 | 0.992 ± 0.016 | 1.03 ± 0.017 | 1.03 ± 0.03 | 1.02 ± 0.036 | 0.908 ± 0.031
ASKA SYNOVIAL | 1.17 ± 0.046 | 1.1 ± 0.012 | 1.13 ± 0.045 | 1.16 ± 0.053 | 1.21 ± 0.092 | 1.19 ± 0.069 | 1.16 ± 0.1 | 1.15 ± 0.068 | 1.04 ± 0.07 | 1.01 ± 0.085 | 1.04 ± 0.026 | 1.03 ± 0.043 | 1.03 ± 0.067 | 0.952 ± 0.079 | 0.711 ± 0.075 | 0.6847 ± 0.0058
BT20 BREAST | 1.12 ± 0.065 | 1.128 ± 0.0092 | 1.05 ± 0.048 | 1.12 ± 0.05 | 1.14 ± 0.048 | 1.18 ± 0.054 | 1.16 ± 0.045 | 1.38 ± 0.068 | 1.24 ± 0.16 | 1.14 ± 0.086 | 1.33 ± 0.072 | 1.28 ± 0.12 | 1.46 ± 0.037 | 1.33 ± 0.073 | 1.1 ± 0.075 | 0.844 ± 0.069
BT549 BREAST | 1.1 ± 0.073 | 1.01 ± 0.081 | 0.971 ± 0.044 | 1.06 ± 0.043 | 1.07 ± 0.1 | 1.03 ± 0.054 | 1.15 ± 0.14 | 0.977 ± 0.085 | 1.16 ± 0.084 | 1.16 ± 0.23 | 0.976 ± 0.095 | 1.06 ± 0.042 | 0.721 ± 0.051 | 0.724 ± 0.045 | 0.537 ± 0.064 | 0.452 ± 0.058
C33A CERVIX | 0.988 ± 0.07 | 1.03 ± 0.041 | 1.11 ± 0.036 | 1.02 ± 0.045 | 0.887 ± 0.037 | 0.859 ± 0.017 | 0.62 ± 0.014 | 0.537 ± 0.017 | 0.969 ± 0.043 | 0.941 ± 0.064 | 0.963 ± 0.045 | 1.06 ± 0.036 | 0.9227 ± 0.0078 | 0.909 ± 0.075 | 0.697 ± 0.1 | 0.685 ± 0.082
CADOES1 SOFT TISSUE | 0.959 ± 0.045 | 1.06 ± 0.096 | 0.976 ± 0.12 | 0.996 ± 0.16 | 0.958 ± 0.096 | 1.09 ± 0.097 | 1.13 ± 0.052 | 1.13 ± 0.094 | 0.915 ± 0.1 | 0.962 ± 0.14 | 0.772 ± 0.11 | 0.951 ± 0.047 | 0.596 ± 0.096 | 0.448 ± 0.05 | 0.316 ± 0.061 | 0.278 ± 0.041
CAL51 BREAST | 0.966 ± 0.078 | 1.08 ± 0.024 | 1.03 ± 0.055 | 1.02 ± 0.04 | 0.994 ± 0.042 | 1.08 ± 0.032 | 1.02 ± 0.089 | 0.989 ± 0.03 | 1.03 ± 0.028 | 0.98 ± 0.034 | 1 ± 0.041 | 0.952 ± 0.046 | 0.95 ± 0.12 | 0.865 ± 0.15 | 0.586 ± 0.077 | 0.481 ± 0.021
CAL72 BONE | 1.13 ± 0.081 | 1.1 ± 0.061 | 1.16 ± 0.083 | 1.11 ± 0.055 | 1.11 ± 0.015 | 1.12 ± 0.096 | 1.02 ± 0.077 | 0.951 ± 0.17 | 1.04 ± 0.069 | 1.04 ± 0.03 | 1.03 ± 0.088 | 1.028 ± 0.01 | 1.06 ± 0.097 | 1.03 ± 0.14 | 0.958 ± 0.097 | 0.782 ± 0.2
CAL120 BREAST | 1.02 ± 0.052 | 1.03 ± 0.044 | 1.02 ± 0.043 | 1 ± 0.039 | 1.04 ± 0.042 | 1.03 ± 0.075 | 0.998 ± 0.052 | 0.994 ± 0.045 | 0.952 ± 0.053 | 0.929 ± 0.059 | 0.948 ± 0.072 | 0.952 ± 0.044 | 0.995 ± 0.038 | 0.967 ± 0.018 | 0.806 ± 0.017 | 0.717 ± 0.037
CASKI CERVIX | 0.884 ± 0.037 | 0.902 ± 0.013 | 0.952 ± 0.042 | 0.818 ± 0.042 | 0.775 ± 0.044 | 0.685 ± 0.021 | 0.426 ± 0.013 | 0.321 ± 0.013 | 0.891 ± 0.044 | 0.919 ± 0.096 | 0.858 ± 0.056 | 0.898 ± 0.095 | 0.484 ± 0.033 | 0.368 ± 0.042 | 0.214 ± 0.017 | 0.209 ± 0.022
CHLA90 AUTONOMIC GANGLIA | 0.964 ± 0.031 | 0.99 ± 0.07 | 1.01 ± 0.052 | 0.947 ± 0.051 | 0.965 ± 0.06 | 0.981 ± 0.11 | 0.931 ± 0.073 | 0.875 ± 0.11 | 0.953 ± 0.073 | 0.934 ± 0.085 | 0.953 ± 0.06 | 0.902 ± 0.017 | 1.01 ± 0.12 | 0.994 ± 0.099 | 0.984 ± 0.079 | 1 ± 0.063
CME SYNOVIAL | 1.13 ± 0.2 | 1.4 ± 0.13 | 1.43 ± 0.1 | 1.28 ± 0.12 | 1.26 ± 0.096 | 1.35 ± 0.19 | 1.2 ± 0.059 | 1.14 ± 0.16 | 1.27 ± 0.17 | 1.09 ± 0.072 | 1.19 ± 0.081 | 1.19 ± 0.089 | 0.987 ± 0.083 | 0.812 ± 0.063 | 0.484 ± 0.022 | 0.48 ± 0.042
COLO320DM LARGE INTESTINE | 1.01 ± 0.08 | 1.09 ± 0.016 | 1.14 ± 0.026 | 1.2 ± 0.082 | 1.06 ± 0.015 | 1.15 ± 0.083 | 1.1 ± 0.05 | 1.12 ± 0.075 | 1.12 ± 0.044 | 1.12 ± 0.086 | 1.01 ± 0.076 | 1.03 ± 0.048 | 1.03 ± 0.071 | 0.928 ± 0.014 | 0.8568 ± 0.0037 | 0.792 ± 0.04
DU4475 BREAST | 0.907 ± 0.062 | 1.1 ± 0.13 | 1.02 ± 0.079 | 0.944 ± 0.017 | 1.07 ± 0.12 | 0.957 ± 0.11 | 1.14 ± 0.11 | 0.932 ± 0.025 | 0.998 ± 0.059 | 0.872 ± 0.002 | 0.774 ± 0.11 | 0.782 ± 0.074 | 0.537 ± 0.066 | 0.415 ± 0.054 | 0.194 ± 0.015 | 0.167 ± 0.0061
H23 LUNG | 1.02 ± 0.071 | 1.1 ± 0.075 | 0.9837 ± 0.0059 | 1.01 ± 0.019 | 0.861 ± 0.039 | 0.834 ± 0.031 | 0.4077 ± 0.0038 | 0.367 ± 0.023 | 0.987 ± 0.028 | 0.985 ± 0.034 | 0.984 ± 0.033 | 0.899 ± 0.028 | 0.803 ± 0.036 | 0.721 ± 0.057 | 0.614 ± 0.077 | 0.562 ± 0.048
HCC78 LUNG | 0.98 ± 0.029 | 0.972 ± 0.093 | 1.01 ± 0.038 | 0.795 ± 0.26 | 0.82 ± 0.075 | 0.944 ± 0.1 | 0.857 ± 0.12 | 0.872 ± 0.12 | 0.979 ± 0.07 | 1.01 ± 0.11 | 0.899 ± 0.15 | 0.913 ± 0.12 | 0.777 ± 0.21 | 0.709 ± 0.025 | 0.213 ± 0.037 | 0.166 ± 0.036
HCC202 BREAST | 1.3 ± 0.2 | 0.845 ± 0.19 | 1.17 ± 0.43 | 0.937 ± 0.17 | 0.905 ± 0.14 | 0.726 ± 0.31 | 0.383 | 0.221 ± 0.029 | 1 ± 0.21 | 1.25 ± 0.5 | 1.23 ± 0.27 | 1.06 ± 0.27 | 1.09 ± 0.26 | 1.09 ± 0.16 | 1.23 ± 0.18 | 1.009 ± 0.0014
